Test results: patent publication US4439603A, “Anthracycline derivatives of β-rhodomycinone glycosides” (Sanraku-Ocean Co., Ltd., priority 1981, dated 1984)
In brackets after ≈: the same amount, converted by molar mass.

What was measured:
[1] = tested on: L1210 cells, RNA synthesis; experiment: Inhibition of RNA synthesis (14C-uridine incorporation) in L1210 cells; type: cell-based, mouse; settings: RPMI 1640 with 10% calf serum, pulse-labeling 60 minutes at 37° C.; for IC50: Mus musculus, L1210, 1 h, read-out: 50% Inhibitory concentration, 14C-Uridine (Inhibition of RNA synthesis)
Experimental: (§1) Independently of the above-mentioned experiment, the compounds of the present invention were added to an about 5×10^5 cells/ml L1210 cell suspension in RPMI 1640 medium containing 10% calf serum at a concentration of 0.02-2.5 μg/ml. After 15 minutes, ^14 -C-uridine (0.05 μCi/ml) or ^14 C-thymidine (0.05 μCi/ml) was added to the suspension and pulse-labeling was carried out at 37° C. for 60 minutes. The reaction was stopped by addition of a cold 10% trichloroacetic acid solution and an acid-insoluble fraction was precipitated. The precipitate was washed with a cold 5% trichloroacetic acid and the radioactivity was measured.

[2] = tested on: L1210 cells, DNA synthesis; experiment: Inhibition of DNA synthesis (14C-thymidine incorporation) in L1210 cells; type: cell-based, mouse; settings: RPMI 1640 with 10% calf serum, pulse-labeling 60 minutes at 37° C.; for IC50: Mus musculus, L1210, 1 h, read-out: 50% Inhibitory concentration, 14C-Thymidine (Inhibition of DNA synthesis)
Experimental: as §1

mice = experiment: Acute toxicity in mice upon a single intraabdominal injection; type: in vivo
L1210 leukemia cells = experiment: Growth inhibition of cultured mouse leukemia L1210 cells (48 hours, viable cell count); type: cell-based; settings: for antitumor effect on L1210 leukemia cells: result in words; for IC50: Mus musculus, L1210, 48 h, read-out: 50% Inhibitory concentration, Growth inhibition after 48 hours
Experimental: The L1210 cells were cultivated at 37° C. overnight and transferred to RPMI (Roswell Park Memorial Institute) 1640 medium containing 20% calf serum at their exponential growth phase so as to give a cell concentration of 4×10^4 cells/ml. The compounds of the present invention were added to the medium at a concentration of 0.01-0.25 μg/ml. Incubation was performed in a CO2 -incubator at 37° C. for 2 days and then the number of viable cells was counted.
as §1

Solubility = type: physicochemical
Experimental: Solubilities of the compounds of the present invention, β-rhodomycinone-RDA, -RDRs, and -RD are similar. […] The color of the solutions, when they are dissolved, is red or reddish yellow, which is changed to violet in alkaline solution.

[3] = Acute toxicity in mice upon a single intraabdominal injection; type: in vivo; settings: mouse, in vivo, ip
[4] = L1210 cells, RPMI 1640 with 20% calf serum, 37° C., 48 hours
[5] = in acidic water, methanol, ethanol, n-butanol, acetone, ethyl acetate, chloroform, benzene, toluene, dimethylsulfoxide and methyl cellosolve

| SMILES | 50% Inhibitory concentration, 14C-Uridine (Inhibition of RNA synthesis) [1] | 50% Inhibitory concentration, 14C-Thymidine (Inhibition of DNA synthesis) [2] | acute toxicity (LD50 value) (mice) | 50% Inhibitory concentration, Growth inhibition after 48 hours (L1210 leukemia cells; [4]) | antitumor effect on L1210 leukemia cells (L1210 leukemia cells) | Solubility (Solubility; [5]) | Solubility (Solubility; in water, ether and n-hexane) | IC50 [1] | IC50 [2] | LD50 [3] | IC50 (L1210 leukemia cells; [4]) |
| --- | --- | --- | --- | --- | --- | --- | --- | --- | --- | --- | --- |
| CCC1(O)CC(OC2CC(N(C)C)C(OC3CC(O)C(OC4CCC(O)C(C)O4)C(C)O3)C(C)O2)c2c(O)c3c(c(O)c2C1O)C(=O)c1cccc(O)c1C3=O (stereo not drawn) [β-Rhodomycinone-RDRs] | 0.085 µg/mL | 0.54 µg/mL | 35.3 mg/kg | 0.016 µg/mL | have an antitumor effect on L1210 leukemia cells | soluble | slightly soluble |  |  |  |  |
| CCC1(O)CC(OC2CC(N(C)C)C(OC3CC(O)C(OC4CCC(O)C(C)O4)C(C)O3)C(C)O2)c2c(O)c3c(c(O)c2C1O)C(=O)c1cccc(O)c1C3=O (stereo not drawn) [β-Rhodomycinone-RDA] |  |  |  |  | have an antitumor effect on L1210 leukemia cells | soluble | slightly soluble | 0.095 µg/mL (≈ 0.121 µM) | 0.52 µg/mL (≈ 0.66 µM) | 40.6 mg/kg | 0.028 µg/mL (≈ 0.0355 µM) |
| CCC1(O)CC(OC2CC(N(C)C)C(OC3CC(O)C(OC4CCC(=O)C(C)O4)C(C)O3)C(C)O2)c2c(O)c3c(c(O)c2C1O)C(=O)c1cccc(O)c1C3=O (stereo not drawn) [β-Rhodomycinone-RDC, reference compound] |  |  |  |  |  |  |  | 0.07 µg/mL (≈ 0.0891 µM) | 0.45 µg/mL (≈ 0.573 µM) |  | 0.01 µg/mL (≈ 0.0127 µM) |
| CCC1(O)CC(OC2CC(N(C)C)C(OC3CC(O)C(O)C(C)O3)C(C)O2)c2c(O)c3c(c(O)c2C1O)C(=O)c1cccc(O)c1C3=O (stereo not drawn) [β-Rhodomycinone-RD] |  |  |  |  | have an antitumor effect on L1210 leukemia cells | soluble | slightly soluble | 0.13 µg/mL (≈ 0.193 µM) | 0.36 µg/mL (≈ 0.534 µM) | 25.5 mg/kg | 0.01 µg/mL (≈ 0.0148 µM) |
